Data published in patent publication US10758534B2 (Vertex Pharmaceuticals Incorporated, priority 2014, dated 2020).
Like-named read-outs stand apart in the source and are kept apart here.

Molecular target: T1, F508del (Homo sapiens, UniProt P13569, DEL508-508)
T1 construct: expressed in transfected cells
Experiment: Protocol 2: FRET membrane potential optical assay (VIPR), identification of correction compounds
Type: cell-based
Method in brief: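 NIH3T3 mouse fibroblasts stably expressing F508del were treated with test compound for 16 hrs at 37° C. in serum-free medium; 27° C. incubation served as positive control. F508del was activated with 10 μM forskolin plus 20 μM genistein in Cl^−-free medium, and Cl^− efflux-driven depolarization was read by DiSBAC2(3)/CC2-DMPE FRET.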

[1] = F508del CFTR modulator activity, compounds of Table 1, read-out: EC30
[2] = Table 3, compounds of Table 1 as modulators of CFTR activity, protocol not stated

T1 sequence (P13569 with tags, fused parts or gaps DEL508-508): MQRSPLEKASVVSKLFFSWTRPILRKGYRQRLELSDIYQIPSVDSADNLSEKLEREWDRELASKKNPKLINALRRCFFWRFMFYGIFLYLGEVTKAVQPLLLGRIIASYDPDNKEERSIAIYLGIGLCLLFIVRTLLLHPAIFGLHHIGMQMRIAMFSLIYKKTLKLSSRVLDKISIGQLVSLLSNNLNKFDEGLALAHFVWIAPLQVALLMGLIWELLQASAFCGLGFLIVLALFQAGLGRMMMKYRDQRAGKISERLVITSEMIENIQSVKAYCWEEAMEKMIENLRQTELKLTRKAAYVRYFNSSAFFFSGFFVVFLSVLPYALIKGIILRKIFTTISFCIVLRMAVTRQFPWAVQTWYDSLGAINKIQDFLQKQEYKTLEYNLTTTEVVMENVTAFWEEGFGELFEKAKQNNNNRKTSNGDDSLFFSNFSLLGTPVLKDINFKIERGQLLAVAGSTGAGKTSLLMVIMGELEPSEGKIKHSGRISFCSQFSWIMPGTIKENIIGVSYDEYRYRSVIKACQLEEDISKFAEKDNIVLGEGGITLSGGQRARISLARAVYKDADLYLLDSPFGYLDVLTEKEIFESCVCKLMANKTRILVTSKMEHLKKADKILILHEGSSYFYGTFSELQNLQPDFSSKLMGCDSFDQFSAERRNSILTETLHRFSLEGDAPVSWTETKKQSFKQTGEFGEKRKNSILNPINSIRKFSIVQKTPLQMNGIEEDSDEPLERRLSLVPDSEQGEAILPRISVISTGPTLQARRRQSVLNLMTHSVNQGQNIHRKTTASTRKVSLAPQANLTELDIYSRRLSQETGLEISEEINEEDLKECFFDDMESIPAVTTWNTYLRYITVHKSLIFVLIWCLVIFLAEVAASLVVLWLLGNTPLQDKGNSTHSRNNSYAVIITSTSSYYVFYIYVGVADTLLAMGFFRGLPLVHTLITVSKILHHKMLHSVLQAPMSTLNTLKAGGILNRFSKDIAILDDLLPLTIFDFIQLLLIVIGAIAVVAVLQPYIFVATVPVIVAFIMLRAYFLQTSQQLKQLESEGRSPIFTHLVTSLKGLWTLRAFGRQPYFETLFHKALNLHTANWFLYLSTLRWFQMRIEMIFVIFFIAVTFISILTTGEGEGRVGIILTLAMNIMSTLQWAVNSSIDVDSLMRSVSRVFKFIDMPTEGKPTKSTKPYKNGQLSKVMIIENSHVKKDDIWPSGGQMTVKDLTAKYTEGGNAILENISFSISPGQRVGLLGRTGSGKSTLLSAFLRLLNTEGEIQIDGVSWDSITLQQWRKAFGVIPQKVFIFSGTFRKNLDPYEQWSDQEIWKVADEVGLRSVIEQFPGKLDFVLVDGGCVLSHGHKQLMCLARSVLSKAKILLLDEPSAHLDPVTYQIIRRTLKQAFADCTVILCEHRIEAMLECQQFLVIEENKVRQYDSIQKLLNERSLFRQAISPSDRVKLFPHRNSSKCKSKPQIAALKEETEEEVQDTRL

Structure (SMILES) | EC30 [1] [nM] | EC30 [2]
CC1CN(c2ncccc2C(=O)NS(=O)(=O)c2cccc(OCc3ccc(C(F)(F)F)cc3)n2)C(C)(C)C1 (stereo not shown) [Compound 2618, N—[[6-[[4-(trifluoromethyl)phenyl]methoxy]-2-pyridyl]sulfonyl]-2-(2,2,4-trimethylpyrrolidin-1-yl)pyridine-3-carboxamide] | < 3000 | 
Cc1nc(OCC(C)C)ccc1-c1ccc(C(=O)NS(=O)(=O)c2cccc(N)n2)c(N2CC(C)CC2(C)C)n1 (stereo not shown) [Compound 616, N-[(6-amino-2-pyridyl)sulfonyl]-6-(6-isobutoxy-2-methyl-3-pyridyl)-2-(2,2,4-trimethylpyrrolidin-1-yl)pyridine-3-carboxamide] |  | +++ (“+++” means <3 uM)
Cc1cccc(-c2ccc(C(=O)NS(=O)(=O)c3cccc(N)n3)c(N3C[C@@H](C)CC3(C)C)n2)c1O [Compound 2203, N-[(6-amino-2-pyridyl)sulfonyl]-6-(2-hydroxy-3-methyl-phenyl)-2-[(4S)-2,2,4-trimethylpyrrolidin-1-yl]pyridine-3-carboxamide] | < 3000 | 
CC1CCN(c2nc(-c3ccc(OC(C)C)nc3)ccc2C(=O)NS(=O)(=O)c2cccc(N)n2)CC1 [Compound 736, N-[(6-amino-2-pyridyl)sulfonyl]-6-(6-isopropoxy-3-pyridyl)-2-(4-methyl-1-piperidyl)pyridine-3-carboxamide] |  | +++ (“+++” means <3 uM)
CC1CN(c2ncccc2C(=O)NS(=O)(=O)c2cccc(Oc3cccc(Cl)c3Cl)n2)C(C)(C)C1 (stereo not shown) [Compound 2720] | < 3000 | 
CC1CN(c2ncccc2C(=O)NS(=O)(=O)c2cccc(OCc3ccccc3)n2)C(C)(C)C1 (stereo not shown) [Compound 2619, N-[(6-benzyloxy-2-pyridyl)sulfonyl]-2-(2,2,4-trimethylpyrrolidin-1-yl)pyridine-3-carboxamide] | < 3000 | 
CC(C)Oc1ccc(-c2ccc(C(=O)NS(=O)(=O)c3cccc(N)n3)c(N3CCCC(c4ccccn4)C3)n2)cn1 (stereo not shown) [Compound 489, N-[(6-amino-2-pyridyl)sulfonyl]-6-(6-isopropoxy-3-pyridyl)-2-[3-(2-pyridyl)-1-piperidyl]pyridine-3-carboxamide] |  | +++ (“+++” means <3 uM)
CC(C)Oc1ccc(-c2ccc(C(=O)NS(=O)(=O)c3cccc(N)n3)c(N3CCC4CCCC43)n2)cn1 (stereo not shown) [Compound 732, 2-(3,3a,4,5,6,6a-hexahydro-2H-cyclopenta[b]pyrrol-1-yl)-N-[(6-amino-2-pyridyl)sulfonyl]-6-(6-isopropoxy-3-pyridyl)pyridine-3-carboxamide] |  | +++ (“+++” means <3 uM)
CC(C)COc1cc(F)cc(-c2ccc(C(=O)NS(=O)(=O)c3cccc(N)n3)c(N3CCCC3c3ccccn3)n2)c1 (stereo not shown) [Compound 659, N-[(6-amino-2-pyridyl)sulfonyl]-6-(3-fluoro-5-isobutoxy-phenyl)-2-[2-(2-pyridyl)pyrrolidin-1-yl]pyridine-3-carboxamide] |  | ++ (“++” means between 3 uM and 10 uM)
Cc1cccc(C)c1Cn1nc(-c2ccsc2)cc1C(=O)NS(=O)(=O)c1ccccc1 [Compound 357, N-(benzenesulfonyl)-2-[(2,6-dimethylphenyl)methyl]-5-(3-thienyl)pyrazole-3-carboxamide] |  | ++ (“++” means between 3 uM and 10 uM)
COC(=O)c1ccc(Oc2cccc(S(=O)(=O)NC(=O)c3cccnc3N3CC(C)CC3(C)C)n2)cc1 (stereo not shown) [Compound 2728] | < 3000 | 
COc1ccc(-c2ccc(C(=O)NS(=O)(=O)c3ccc[nH]c3=O)c(N3C[C@@H](C)CC3(C)C)n2)c(C)c1 [Compound 2469, 6-(4-methoxy-2-methyl-phenyl)-N-[(2-oxo-1H-pyridin-3-yl)sulfonyl]-2-[(4S)-2,2,4-trimethylpyrrolidin-1-yl]pyridine-3-carboxamide] | 3000 to 10000 | 
COc1cc(Cl)cc(-c2cnc(N3CC(C)CC3(C)C)c(C(=O)NS(=O)(=O)c3cccc(N)n3)c2)c1 (stereo not shown) [Compound 2545, N-[(6-amino-2-pyridyl)sulfonyl]-5-(3-chloro-5-methoxy-phenyl)-2-(2,2,4-trimethylpyrrolidin-1-yl)pyridine-3-carboxamide] | < 3000 | 
CCOc1cccc(F)c1-c1ccc(C(=O)NS(=O)(=O)c2cccnc2N)c(N2C[C@@H](C)CC2(C)C)n1 [Compound 2103, N-[(2-amino-3-pyridyl)sulfonyl]-6-(2-ethoxy-6-fluoro-phenyl)-2-[(4S)-2,2,4-trimethylpyrrolidin-1-yl]pyridine-3-carboxamide] | < 3000 | 
CC1CCN(c2nc(-c3cc(F)cc(OC(C)C)c3)ccc2C(=O)NS(=O)(=O)c2cccc(N)n2)CC1 [Compound 600, N-[(6-amino-2-pyridyl)sulfonyl]-6-(3-fluoro-5-isopropoxy-phenyl)-2-(4-methyl-1-piperidyl)pyridine-3-carboxamide] |  | +++ (“+++” means <3 uM)
C[C@@H]1CN(c2nc(-n3ccc(OCC(C)(C)C)n3)ccc2C(=O)NS(=O)(=O)c2cccnc2N2CCCCC2)C(C)(C)C1 [Compound 2670, 6-[3-(2,2-dimethylpropoxy)pyrazol-1-yl]-N-[[2-(1-piperidyl)-3-pyridyl]sulfonyl]-2-[(4S)-2,2,4-trimethylpyrrolidin-1-yl]pyridine-3-carboxamide] | < 3000 | 
CC(C)Oc1ccc(-c2ccc(C(=O)NS(=O)(=O)c3cccc(N)n3)c(N3CCCC3C(C)C)n2)cn1 (stereo not shown) [Compound 724, N-[(6-amino-2-pyridyl)sulfonyl]-6-(6-isopropoxy-3-pyridyl)-2-(2-isopropylpyrrolidin-1-yl)pyridine-3-carboxamide] |  | +++ (“+++” means <3 uM)
CC(C)COc1cc(F)cc(-c2ccc(C(=O)NS(=O)(=O)c3cccc(N)n3)c(N3C[C@H](C(F)(F)F)CC3(C)C)n2)c1 (single isomer, unassigned) [Compound 2271, N-[(6-amino-2-pyridyl)sulfonyl]-2-(2,2-dimethyl-4-(trifluoromethyl)pyrrolidin-1-yl)-6-(3-fluoro-5-isobutoxy-phenyl)pyridine-3-carboxamide] | < 3000 | 
CCCOc1cc(-c2ccc(C(=O)NS(=O)(=O)c3cccc(N)n3)c(N3[C@H](C)CC[C@@H]3C)n2)ccc1Cl [Compound 773, N-[(6-amino-2-pyridyl)sulfonyl]-6-(4-chloro-3-propoxy-phenyl)-2-[(2R,5S)-2,5-dimethylpyrrolidin-1-yl]pyridine-3-carboxamide] |  | +++ (“+++” means <3 uM)

Results, then the compound that gave them:

EC30 [1] [nM] | EC30 [2] | Structure (SMILES)
 | ++ (“++” means between 3 uM and 10 uM) | CCOc1ccc(-c2ccc(C(=O)NS(=O)(=O)c3ccc[nH]c3=O)c(Oc3ccc(C)cc3C)n2)cc1 [Compound 517, 2-(2,4-dimethylphenoxy)-6-(4-ethoxyphenyl)-N-[(2-oxo-1H-pyridin-3-yl)sulfonyl]pyridine-3-carboxamide]
 | +++ (“+++” means <3 uM) | CCc1cccc(S(=O)(=O)NC(=O)c2ccc(C(C)(C)C)nc2-c2ccc(C)cc2)c1 [Compound 50, 6-tert-butyl-N-(3-ethylphenyl)sulfonyl-2-(p-tolyl)pyridine-3-carboxamide]
 | +++ (“+++” means <3 uM) | Cc1cc(C)c(Cn2c(C(=O)NS(=O)(=O)c3cccc(N)c3)cc3ccc(Cl)cc32)c(C)c1 [Compound 9, N-(3-aminophenyl)sulfonyl-6-chloro-1-[(2,4,6-trimethylphenyl)methyl]indole-2-carboxamide]
 | +++ (“+++” means <3 uM) | Cc1cccc(C)c1Cn1nc(C(C)(C)C)cc1C(=O)NS(=O)(=O)c1ccc(N)cc1 [Compound 81, N-(4-aminophenyl)sulfonyl-5-tert-butyl-2-[(2,6-dimethylphenyl)methyl]pyrazole-3-carboxamide]
 | +++ (“+++” means <3 uM) | Cc1cc(C)c(Cn2nc(C(C)(C)C)c(C)c2C(=O)NS(=O)(=O)c2cccc(N)n2)c(C)c1 [Compound 356, N-[(6-amino-2-pyridyl)sulfonyl]-5-tert-butyl-4-methyl-2-[(2,4,6-trimethylphenyl)methyl]pyrazole-3-carboxamide]
 | +++ (“+++” means <3 uM) | Cc1cc(C)c(Oc2nc(-c3cccc(C)n3)ccc2C(=O)NS(=O)(=O)c2cccc(N)n2)c(C)c1 [Compound 730, N-[(6-amino-2-pyridyl)sulfonyl]-6-(6-methyl-2-pyridyl)-2-(2,4,6-trimethylphenoxy)pyridine-3-carboxamide]
 | + (“+” means greater than 10 uM) | Cc1ccc(-n2c(C(=O)NS(=O)(=O)c3cccc(N)n3)cc3cc(C)ccc32)cc1 [Compound 653, N-[(6-amino-2-pyridyl)sulfonyl]-5-methyl-1-(p-tolyl)indole-2-carboxamide]
 | +++ (“+++” means <3 uM) | Cc1cc(C)c(Oc2nc(C(C)(C)C)ccc2C(=O)NS(=O)(=O)c2cccc(N(C)C)c2)c(C)c1 [Compound 311, 6-tert-butyl-N-[3-(dimethylamino)phenyl]sulfonyl-2-(2,4,6-trimethylphenoxy)pyridine-3-carboxamide]
 | +++ (“+++” means <3 uM) | COc1cccc(S(=O)(=O)NC(=O)c2cc3ccccc3n2Cc2c(C)cc(C)cc2C)c1 [Compound 335, N-(3-methoxyphenyl)sulfonyl-1-[(2,4,6-trimethylphenyl)methyl]indole-2-carboxamide]
 | ++ (“++” means between 3 uM and 10 uM) | Cc1cc(C)c(Oc2nc(-c3ccccc3F)ccc2C(=O)NS(=O)(=O)c2cccc(N)n2)c(C)c1 [Compound 463, N-[(6-amino-2-pyridyl)sulfonyl]-6-(2-fluorophenyl)-2-(2,4,6-trimethylphenoxy)pyridine-3-carboxamide]
 | +++ (“+++” means <3 uM) | Cc1cc(C)c(Oc2nc(-c3ccc(OC(C)C)cc3)ccc2C(=O)NS(=O)(=O)c2cccc(N)n2)c(C)c1 [Compound 436, N-[(6-amino-2-pyridyl)sulfonyl]-6-(4-isopropoxyphenyl)-2-(2,4,6-trimethylphenoxy)pyridine-3-carboxamide]
 | +++ (“+++” means <3 uM) | Cc1cccc(C)c1Cn1nc(C(C)(C)C)cc1C(=O)NS(=O)(=O)c1c(F)cccc1F [Compound 170, 5-tert-butyl-N-(2,6-difluorophenyl)sulfonyl-2-[(2,6-dimethylphenyl)methyl]pyrazole-3-carboxamide]
